In patent publication US20240300943A1, “NOVEL SALTS OF HETEROCYCLIC COMPOUND AS PROTEIN KINASE INHIBITOR AND USES THEREOF” (HK INNO.N CORPORATION, priority 2021, published 2024):

Experiments:
Type in all cases: physicochemical
[1] = Measurement of water solubility; conditions: saturated solution shaken at room temperature for 24 hours
Protocol: A liquid phase was taken out of the solution and filtered using a 0.22 μm PVDF filter. The filtered liquid phase was diluted 10-fold for LC analysis.
LC analysis was performed by the following method.

[2] = Physical stability evaluation under stress conditions
Protocol: In order to evaluate physical stability, samples were packaged in the form of ((LPDE+N2)+silica gel 1 g+LDPE)+Al-Bag, and stored under stress conditions (60° C.±2° C./80% RH±5%) for 2/4 weeks before evaluation.
In table 2, initial is a result measured after preparation of salts, and S2W and S4W are results measured after two and four weeks while being exposed to stress conditions, respectively.

[3] = Photostability evaluation
From the text: Samples were packaged in LPDE bag, and stored under visible (1.2M Lux-h), UV (200 W-h/m2) and UV+visible conditions, respectively, and then evaluated.

[4] = Hygroscopicity evaluation; conditions: for Individual related material: in %
From the text: Samples were placed in a glass desiccator in which relative humidity was adjusted to 33%, 53%, 75%, and 93%, and then stored for two and four weeks to be evaluated.

Q: What does the source list for `C[C@@H]1CN(C(=O)CC#N)CC=C1c1cc(NC(=O)C2CC2)nc2[nH]ccc12` [Example 4, (S)—N-(4-(1-(2-cyanoacetyl)-3-methyl-1,2,3,6-tetrahydropyridin-4-yl)-1H-pyrrolo[2,3-b]pyridin-6-yl)cyclopropanecarboxamide]?
A: Water solubility [1]: 1900 µg/mL; C.I quantitative ([2]; Initial): 40.3%; Content (anhydride, as anhydride) ([2]; Initial): 100.4%; Moisture ([2]; Initial): 0.67%; Purity: Individual related material ([2]; Initial): 0.13%; Purity: Total related material ([2]; Initial): 1.13%; C.I quantitative ([2]; S2W: 2 weeks at 60° C./80% RH): 40.3%; Content (anhydride, as anhydride) ([2]; S2W: 2 weeks at 60° C./80% RH): 101.9%; Purity: Individual related material ([2]; S2W: 2 weeks at 60° C./80% RH): 0.23%; Purity: Total related material ([2]; S2W: 2 weeks at 60° C./80% RH): 1.32%; C.I quantitative ([2]; S4W: 4 weeks at 60° C./80% RH): 40.6%; Content (anhydride, as anhydride) ([2]; S4W: 4 weeks at 60° C./80% RH): 101.9%; Moisture ([2]; S4W: 4 weeks at 60° C./80% RH): 0.98%; Purity: Individual related material ([2]; S4W: 4 weeks at 60° C./80% RH): 0.30%; Purity: Total related material ([2]; S4W: 4 weeks at 60° C./80% RH): 1.31%; Individual related material ([3]; Initial): 0.13%; Total related material ([3]; Initial): 1.13%; Individual related material ([3]; Solid, Control): 0.14%; Total related material ([3]; Solid, Control): 0.14%; Individual related material ([3]; Solid, UV (200 W-h/m2)): 0.13%; Total related material ([3]; Solid, UV (200 W-h/m2)): 0.27%; Individual related material ([3]; Solid, UV + Vis): 0.13%; Total related material ([3]; Solid, UV + Vis): 0.72%; Individual related material ([3]; Solid, UV + Vis Control): 0.14%; Total related material ([3]; Solid, UV + Vis Control): 0.14%; Individual related material ([3]; Solid, Vis (1.2M Lux-h)): 0.13%; Total related material ([3]; Solid, Vis (1.2M Lux-h)): 0.68%; Total related material ([4]; Initial): 1.13%; Water ([4]; Initial): 0.67%; Individual related material ([4]; Initial): 0.13; Total related material ([4]; relative humidity 33%, 2 W): 1.1%; Water ([4]; relative humidity 33%, 2 W): 0.56%; Individual related material ([4]; relative humidity 33%, 2 W): 0.14; Total related material ([4]; relative humidity 33%, 4 W): 1.07%; Water ([4]; relative humidity 33%, 4 W): 0.54%; Individual related material ([4]; relative humidity 33%, 4 W): 0.14; Total related material ([4]; relative humidity 53%, 2 W): 1.18%; Water ([4]; relative humidity 53%, 2 W): 0.80%; Individual related material ([4]; relative humidity 53%, 2 W): 0.15; Total related material ([4]; relative humidity 53%, 4 W): 1.04%; Water ([4]; relative humidity 53%, 4 W): 0.65%; Individual related material ([4]; relative humidity 53%, 4 W): 0.15; Total related material ([4]; relative humidity 75%, 2 W): 1.18%; Water ([4]; relative humidity 75%, 2 W): 1.44%; Individual related material ([4]; relative humidity 75%, 2 W): 0.15; Total related material ([4]; relative humidity 75%, 4 W): 1.18%; Water ([4]; relative humidity 75%, 4 W): 1.02%; Individual related material ([4]; relative humidity 75%, 4 W): 0.16; Total related material ([4]; relative humidity 93%, 2 W): 1.17%; Water ([4]; relative humidity 93%, 2 W): 2.03%; Individual related material ([4]; relative humidity 93%, 2 W): 0.16; Total related material ([4]; relative humidity 93%, 4 W): 1.15%; Water ([4]; relative humidity 93%, 4 W): 1.72%; Individual related material ([4]; relative humidity 93%, 4 W): 0.17

Q: What does the source list for `C[C@@H]1CN(C(=O)CC#N)CC=C1c1cc(NC(=O)C2CC2)nc2[nH]ccc12` [Example 5, (S)—N-(4-(1-(2-cyanoacetyl)-3-methyl-1,2,3,6-tetrahydropyridin-4-yl)-1H-pyrrolo[2,3-b]pyridin-6-yl)cyclopropanecarboxamide]?
A: Water solubility [1]: 4600 µg/mL; Individual related material ([3]; Initial): 0.14%; Total related material ([3]; Initial): 0.64%; Individual related material ([3]; Solid, Control): 0.65%; Total related material ([3]; Solid, Control): 0.65%; Individual related material ([3]; Solid, UV (200 W-h/m2)): 1%; Total related material ([3]; Solid, UV (200 W-h/m2)): 1%; Individual related material ([3]; Solid, UV + Vis): 1.96%; Total related material ([3]; Solid, UV + Vis): 1.96%; Individual related material ([3]; Solid, UV + Vis Control): 0.78%; Total related material ([3]; Solid, UV + Vis Control): 0.78%; Individual related material ([3]; Solid, Vis (1.2M Lux-h)): 1.72%; Total related material ([3]; Solid, Vis (1.2M Lux-h)): 1.72%

Q: With `C[C@@H]1CN(C(=O)CC#N)CC=C1c1cc(NC(=O)C2CC2)nc2[nH]ccc12` [Example 6, (S)—N-(4-(1-(2-cyanoacetyl)-3-methyl-1,2,3,6-tetrahydropyridin-4-yl)-1H-pyrrolo[2,3-b]pyridin-6-yl)cyclopropanecarboxamide] as the compound, how does the Water solubility [1] read?
A: 900 µg/mL
